The text below walks through data of ChEMBL document CHEMBL3875196, “Novel pyrazolo[1,5-a]pyridines with improved aqueous solubility as p110α-selective PI3 kinase inhibitors” (Bioorg Med Chem Lett, 2017).

Where only a bound is given, the exact number is not on record here.

The nature of data set [1]: Solubility of the compound in water by HPLC analysis. The data set is classed as physicochemical.
Data set [2] has as its target PI3K p110 beta/p85 alpha (Homo sapiens, UniProt P42338). Put plainly: Inhibition of recombinant human p110beta/N-terminal His-tagged human p85alpha expressed in baculovirus infected sf cells using L-alpha-phosphatidylinositol as substrate after 1 hr in presence of [gamma33]-ATP by thin layer chromatographic analysis.
Data set [3] addresses Phosphatidylinositol 4,5-bisphosphate 3-kinase catalytic subunit alpha isoform (Homo sapiens, UniProt P42336, H1047R). Put plainly: Inhibition of p110alpha H1047R mutant in human HCT116 cells assessed as suppression of PKB phosphorylation at Ser473 preincubated for 15 mins followed by insulin stimulation for 5 mins by immunoblot analysis. The data set is classed as cell-based, HCT-116.

Data set [4] is described as follows: Inhibition of recombinant mouse p110alpha/N-terminal His-tagged human p85alpha expressed in baculovirus infected Sf21 cells using L-alpha-phosphatidylinositol as substrate after 1 hr in presence of [gamma33]-ATP by thin layer chromatographic analysis.
Data set [5] is described as follows: Antiproliferative activity against wild type p110alpha expressing human NZOV9 cells after 5 days by [3H]-thymidine incorporation assay. The data set is classed as functional, cell-based.
Data set [6] can be described thus: Antiproliferative activity against wild type p110alpha expressing human NZB5 cells after 5 days by [3H]-thymidine incorporation assay. The data set is classed as functional, cell-based.
Data set [7] deals with T1, Phosphatidylinositol 4,5-bisphosphate 3-kinase catalytic subunit delta isoform (Homo sapiens, UniProt O00329).
T1 sequence (O00329 whole entry): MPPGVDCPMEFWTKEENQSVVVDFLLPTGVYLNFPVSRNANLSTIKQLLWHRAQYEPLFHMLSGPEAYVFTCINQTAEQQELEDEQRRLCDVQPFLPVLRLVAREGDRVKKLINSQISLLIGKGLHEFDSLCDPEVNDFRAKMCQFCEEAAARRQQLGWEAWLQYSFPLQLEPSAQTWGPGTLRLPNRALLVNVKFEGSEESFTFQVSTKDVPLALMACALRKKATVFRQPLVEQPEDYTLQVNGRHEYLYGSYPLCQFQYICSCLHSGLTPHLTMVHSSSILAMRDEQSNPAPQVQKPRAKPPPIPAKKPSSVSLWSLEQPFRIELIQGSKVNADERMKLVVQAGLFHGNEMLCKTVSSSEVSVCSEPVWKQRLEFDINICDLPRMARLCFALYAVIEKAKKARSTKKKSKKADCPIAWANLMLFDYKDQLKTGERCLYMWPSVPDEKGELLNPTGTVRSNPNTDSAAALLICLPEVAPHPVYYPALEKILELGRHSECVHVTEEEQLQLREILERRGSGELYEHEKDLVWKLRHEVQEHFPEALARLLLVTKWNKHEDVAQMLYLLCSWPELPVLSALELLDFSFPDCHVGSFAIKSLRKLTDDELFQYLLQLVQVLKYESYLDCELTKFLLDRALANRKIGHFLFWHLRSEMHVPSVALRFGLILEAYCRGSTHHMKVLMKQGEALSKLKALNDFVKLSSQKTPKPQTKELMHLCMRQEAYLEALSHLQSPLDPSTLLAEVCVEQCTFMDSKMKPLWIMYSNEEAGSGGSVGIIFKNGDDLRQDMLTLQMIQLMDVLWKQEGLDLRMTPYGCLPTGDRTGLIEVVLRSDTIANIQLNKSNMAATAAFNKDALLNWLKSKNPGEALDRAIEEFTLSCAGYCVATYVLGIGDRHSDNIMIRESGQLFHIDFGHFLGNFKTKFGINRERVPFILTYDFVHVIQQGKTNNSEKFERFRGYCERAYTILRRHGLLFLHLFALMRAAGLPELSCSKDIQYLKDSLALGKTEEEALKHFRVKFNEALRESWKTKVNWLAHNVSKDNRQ
As to the kind of experiment: Inhibition of p110delta (unknown origin) using L-alpha phosphatidylinositol as substrate after 1 hr in presence of [gamma33]-ATP by thin layer chromatographic analysis.

In data set [8] the test system is Mus musculus. Put plainly: Toxicity in NIH3 mouse assessed as change in body weight at 20 to 40 mg/kg, ip. Particulars: in vivo. In kind it is organism-based.
The nature of data set [9]: Selectivity ratio of IC50 for human p110beta to IC50 for recombinant mouse p110alpha/N-terminal His-tagged human p85alpha.
The nature of data set [10]: Selectivity ratio of IC50 for p110delta (unknown origin) to IC50 for recombinant mouse p110alpha/N-terminal His-tagged human p85alpha.

Sequence of Phosphatidylinositol 4,5-bisphosphate 3-kinase catalytic subunit alpha isoform (P42336 whole entry H1047R, canonical isoform): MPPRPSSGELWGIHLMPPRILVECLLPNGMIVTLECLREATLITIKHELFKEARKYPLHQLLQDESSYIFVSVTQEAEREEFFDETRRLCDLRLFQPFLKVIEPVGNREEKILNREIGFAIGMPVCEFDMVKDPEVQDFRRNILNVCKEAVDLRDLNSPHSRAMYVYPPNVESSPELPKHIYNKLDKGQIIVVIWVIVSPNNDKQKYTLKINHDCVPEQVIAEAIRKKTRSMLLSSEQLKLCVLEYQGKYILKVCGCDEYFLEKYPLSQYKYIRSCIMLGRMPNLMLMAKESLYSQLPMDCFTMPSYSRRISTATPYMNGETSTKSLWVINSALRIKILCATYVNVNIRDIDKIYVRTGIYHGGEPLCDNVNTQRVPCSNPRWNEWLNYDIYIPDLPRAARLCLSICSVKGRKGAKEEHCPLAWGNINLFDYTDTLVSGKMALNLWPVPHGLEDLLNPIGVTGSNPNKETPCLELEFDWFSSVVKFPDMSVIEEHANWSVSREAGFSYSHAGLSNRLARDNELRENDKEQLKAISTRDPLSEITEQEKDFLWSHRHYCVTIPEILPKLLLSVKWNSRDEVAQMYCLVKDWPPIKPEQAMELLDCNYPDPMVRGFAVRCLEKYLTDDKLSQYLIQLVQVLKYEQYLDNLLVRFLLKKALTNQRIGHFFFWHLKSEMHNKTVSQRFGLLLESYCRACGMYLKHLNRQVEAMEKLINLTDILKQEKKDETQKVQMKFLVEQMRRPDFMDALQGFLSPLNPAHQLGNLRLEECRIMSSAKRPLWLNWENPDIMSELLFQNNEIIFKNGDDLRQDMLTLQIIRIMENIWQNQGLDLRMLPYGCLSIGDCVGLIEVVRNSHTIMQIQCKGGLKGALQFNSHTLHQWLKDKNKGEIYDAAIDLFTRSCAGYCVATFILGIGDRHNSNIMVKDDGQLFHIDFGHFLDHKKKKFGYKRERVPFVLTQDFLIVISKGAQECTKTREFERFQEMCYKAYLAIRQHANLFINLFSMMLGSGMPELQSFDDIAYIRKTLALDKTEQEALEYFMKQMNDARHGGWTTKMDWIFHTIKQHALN
Sequence of PI3K p110 beta/p85 alpha (P27986 whole entry, canonical isoform): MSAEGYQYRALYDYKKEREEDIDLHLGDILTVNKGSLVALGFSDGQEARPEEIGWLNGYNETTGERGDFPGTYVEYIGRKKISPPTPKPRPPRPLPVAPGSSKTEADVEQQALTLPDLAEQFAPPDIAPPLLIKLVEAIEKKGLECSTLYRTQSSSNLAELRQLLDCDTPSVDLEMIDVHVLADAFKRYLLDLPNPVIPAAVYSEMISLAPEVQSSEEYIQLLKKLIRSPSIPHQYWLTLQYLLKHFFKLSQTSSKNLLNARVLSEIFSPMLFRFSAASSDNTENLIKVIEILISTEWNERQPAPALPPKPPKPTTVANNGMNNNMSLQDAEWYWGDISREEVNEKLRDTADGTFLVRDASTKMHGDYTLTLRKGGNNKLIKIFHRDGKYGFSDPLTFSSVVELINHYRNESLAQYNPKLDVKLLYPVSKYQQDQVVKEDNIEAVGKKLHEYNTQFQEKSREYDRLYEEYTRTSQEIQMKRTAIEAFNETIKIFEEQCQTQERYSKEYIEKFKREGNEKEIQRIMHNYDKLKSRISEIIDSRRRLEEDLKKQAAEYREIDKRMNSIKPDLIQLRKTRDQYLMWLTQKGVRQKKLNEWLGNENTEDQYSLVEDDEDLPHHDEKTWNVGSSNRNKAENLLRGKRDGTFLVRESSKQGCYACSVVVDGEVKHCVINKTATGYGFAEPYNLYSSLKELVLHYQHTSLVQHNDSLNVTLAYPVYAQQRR
Sequence of PI3K p110 beta/p85 alpha (P42338 whole entry, canonical isoform): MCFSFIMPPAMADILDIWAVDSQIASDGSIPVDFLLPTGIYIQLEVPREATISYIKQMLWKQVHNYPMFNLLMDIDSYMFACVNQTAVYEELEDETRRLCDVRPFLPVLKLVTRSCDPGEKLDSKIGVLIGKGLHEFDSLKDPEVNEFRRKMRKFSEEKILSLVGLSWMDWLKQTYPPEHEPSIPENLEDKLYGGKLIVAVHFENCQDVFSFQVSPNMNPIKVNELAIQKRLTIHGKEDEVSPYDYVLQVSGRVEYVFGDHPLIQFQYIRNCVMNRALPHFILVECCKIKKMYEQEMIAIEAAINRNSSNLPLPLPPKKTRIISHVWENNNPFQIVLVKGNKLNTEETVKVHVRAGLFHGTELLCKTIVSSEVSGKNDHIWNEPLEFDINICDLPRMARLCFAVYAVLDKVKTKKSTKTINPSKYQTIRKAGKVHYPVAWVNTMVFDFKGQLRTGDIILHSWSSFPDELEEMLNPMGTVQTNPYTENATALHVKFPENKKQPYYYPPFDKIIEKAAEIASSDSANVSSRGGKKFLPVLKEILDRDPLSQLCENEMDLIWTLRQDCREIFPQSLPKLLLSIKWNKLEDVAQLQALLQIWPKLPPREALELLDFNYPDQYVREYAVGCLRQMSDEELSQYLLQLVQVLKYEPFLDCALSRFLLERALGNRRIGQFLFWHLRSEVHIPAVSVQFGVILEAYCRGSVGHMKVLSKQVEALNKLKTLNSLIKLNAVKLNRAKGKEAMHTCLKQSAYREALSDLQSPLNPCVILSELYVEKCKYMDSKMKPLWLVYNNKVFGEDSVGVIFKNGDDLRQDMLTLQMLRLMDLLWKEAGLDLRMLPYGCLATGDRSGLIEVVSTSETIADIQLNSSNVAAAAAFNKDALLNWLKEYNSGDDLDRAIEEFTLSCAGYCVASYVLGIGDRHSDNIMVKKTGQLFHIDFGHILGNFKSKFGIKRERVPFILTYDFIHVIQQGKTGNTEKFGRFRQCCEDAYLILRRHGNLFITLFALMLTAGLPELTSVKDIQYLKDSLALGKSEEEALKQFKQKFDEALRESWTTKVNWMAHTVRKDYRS

Molecule `CN(CCc1ccncc1)c1ccc([N+](=O)[O-])cc1S(=O)(=O)N(C)/N=C/c1cnn2ccc(C#N)cc12.Cl` yielded a solubility in data set [1] of 45 µg/mL.

For `CN(CCc1c[nH]cn1)c1ccc([N+](=O)[O-])cc1S(=O)(=O)N(C)/N=C/c1cnn2ccc(C#N)cc12`, the half-inhibitory concentration (IC50) was 740 nM in [2]; 67 nM in data set [3]; 18 nM in data set [4]; 57 nM in [5]; 3 nM in [6]; 88 nM in data set [7]. Besides, the Activity result in data set [8] is recorded as “Toxic”.

Molecule `CN(CCc1c[nH]cn1)c1ccc([N+](=O)[O-])cc1S(=O)(=O)N(C)/N=C/c1cnn2ccc(C#N)cc12.Cl` displayed a solubility in [1] of 900 µg/mL.

For the molecule `C/C(=N\N(C)S(=O)(=O)c1cc([N+](=O)[O-])ccc1N(C)Cc1ccccn1)c1cnn2ccc(C#N)cc12`, the Ratio IC50 in [9] is 40; in [10], 100. Further, the IC50 is 9400 nM in data set [2]; 5.2 nM in [4]; 2300 nM in [5]; 2200 nM in [6]; 575 nM in [7].

For `CN(C)CCCN(C)c1ccc([N+](=O)[O-])cc1S(=O)(=O)N(C)/N=C/c1cnn2ccc(C#N)cc12`, the IC50 in data set [2] came to 76 nM; in data set [3], 72 nM; in [4], 16 nM; in data set [5] it was 25 nM; in data set [6] it was 4 nM; in [7], 100 nM. In [8], the Activity entry is listed as “Toxic”.

In the case of `CN(CCn1ccnc1)c1ccc([N+](=O)[O-])cc1S(=O)(=O)N(C)/N=C/c1cnn2ccc(C#N)cc12.Cl`, the solubility in data set [1] stood at 1000 µg/mL.

In the case of `CNCCN(C)c1ccc([N+](=O)[O-])cc1S(=O)(=O)N(C)/N=C/c1cnn2ccc(C#N)cc12`, the IC50 in data set [2] was 1000 nM; in data set [4] it was 65 nM; in [5], 11 nM; in data set [6], 24 nM; in data set [7] it was 280 nM.

For the molecule `CN(/N=C/c1cnn2ccc(C#N)cc12)S(=O)(=O)c1cc([N+](=O)[O-])ccc1NCc1ccccn1`, the IC50 in data set [2] was more than 1000 nM; in [4], 25 nM; in data set [5] it was 680 nM; in [6], 1100 nM; in data set [7], 350 nM.

Regarding `CN(C)CCN(C)c1ccc([N+](=O)[O-])cc1C(=O)N(C)/N=C/c1cnn2ccc(C#N)cc12`, the IC50 in [2] came to 230 nM; in [4], 580 nM; in [5] it was 3100 nM; in data set [6], 5600 nM; in [7], 68 nM.

In the case of `CN(CCn1ccnc1)c1ccc([N+](=O)[O-])cc1S(=O)(=O)N(C)/N=C/c1cnn2ccc(C#N)cc12`, the IC50 in [2] was 150 nM; in [3], 111 nM; in data set [4], 31 nM; in [5], 45 nM; in data set [6], 5 nM; in data set [7], 100 nM.

Turning to `C/C(=N\N(C)S(=O)(=O)c1cc([N+](=O)[O-])ccc1N(C)CCN(C)C)c1cnn2ccc(C#N)cc12`, the IC50 in [2] is more than 1000 nM; in [4], 328 nM; in [5], 860 nM; in data set [6], 1800 nM; in data set [7] it was 658 nM.

As for `CN(C)CCN(C)c1ccc([N+](=O)[O-])cc1S(=O)(=O)N(C)/N=C/c1cnn2ccc(C#N)cc12`, the IC50 in data set [2] was 670 nM; in data set [4], 46 nM; in data set [5], 55 nM; in [6], 49 nM; in data set [7] it was 230 nM.

`CN(Cc1ccccn1)c1ccc([N+](=O)[O-])cc1S(=O)(=O)N(C)/N=C/c1cnn2ccc(C#N)cc12`: the IC50 in [2] turned out to be 450 nM; in [4], 10 nM; in data set [5], 330 nM; in data set [6], 90 nM; in [7], 130 nM.

`CN(CCc1ccccn1)c1ccc([N+](=O)[O-])cc1S(=O)(=O)N(C)/N=C/c1cnn2ccc(C#N)cc12.Cl`: the concentration in solution in data set [1] (solubility) was 5.7 µg/mL.

As to `CN(CCN1CCOCC1)c1ccc([N+](=O)[O-])cc1S(=O)(=O)N(C)/N=C/c1cnn2ccc(C#N)cc12`, the IC50 in data set [2] was 1000 nM; in [4] it was 19 nM; in [5], 210 nM; in [6], 260 nM; in [7] it was 74 nM.

`CN(C)CCCN(C)c1ccc([N+](=O)[O-])cc1S(=O)(=O)N(C)/N=C/c1cnn2ccc(C#N)cc12.Cl`: the concentration in solution in data set [1] (solubility) came to 1200 µg/mL.

In the case of `CN(CCc1cccnc1)c1ccc([N+](=O)[O-])cc1S(=O)(=O)N(C)/N=C/c1cnn2ccc(C#N)cc12.Cl`, the solubility in [1] amounted to 24 µg/mL.

`C/C(=N\NS(=O)(=O)c1cc([N+](=O)[O-])ccc1N(C)Cc1ccccn1)c1cnn2ccc(Br)cc12`: the Ratio IC50 in data set [9] is 800; in [10], 2000. The IC50 in [2] turned out to be 5600 nM; in data set [4], 7.3 nM; in [5] it was 2800 nM; in data set [6] it was 96 nM; in data set [7] it was 292 nM.

Regarding `CCN(CC)CCN(C)c1ccc([N+](=O)[O-])cc1S(=O)(=O)N(C)/N=C/c1cnn2ccc(C#N)cc12`, the 50% inhibitory concentration (IC50) came to 330 nM in data set [2]; 75 nM in data set [4]; 340 nM in data set [5]; 500 nM in [6]; 66 nM in data set [7].

`CN(/N=C/c1cnn2ccc(C#N)cc12)S(=O)(=O)c1cc([N+](=O)[O-])ccc1OCCN1CCOCC1`: the IC50 in data set [2] was found to be 220 nM; in data set [4], 21 nM; in [5] it was 410 nM; in data set [6], 440 nM; in data set [7], 94 nM.

With `CN(/N=C/c1cnn2ccc(C#N)cc12)S(=O)(=O)c1cc(C#N)ccc1OCCN1CCOCC1`, the IC50 in [2] was more than 1000 nM; in data set [4], 360 nM; in [5], 390 nM; in data set [6], 400 nM; in [7], 680 nM.
